System: IL-2 production in Jurkat cell
Experiment: Jurkat IL-2 Production Assay
Format: cell-based
Details: Homo sapiens, Jurkat cell (ATCC), PHA stimulation with 1% FBS or PMA/Ionomycin with 30% FBS (which one not stated), 18-20 h incubation
Protocol: Cell: Jurkat cell (ATCC) was grown in RPMI 1640 with 10% FBS and 1% penicillin/streptomycin. The cell density was kept at 1.2˜1.8×10^6/mL in culture flask before seeding into culture plate, and the cell density in the plate was 0.5×10^6/200 μL/well.
Culture media: RPMI 1640 with 1% FBS or 30% FBS for high serum assay.
Test compound: serial dilution was done in 100% DMSO, and intermediate dilution was done with RPMI 1640 medium with 1% FBS. The DMSO final concentration in culture well was 0.25%.
Stimulant: PHA (Sigma#L9017-10MG) was used for the assay with 1% FBS in culture medium, and added after 10 minutes exposure of cell to compound/DMSO. The […] final concentration in culture well was 5 μg/mL. PMA (Sigma# P-8139 5MG)/Ionomycin (Sigma# I0634-5MG) was used for the assay with 30% FBS in culture medium, and added at same time point as the 1% FBS culture assay. The final concentration of PMA was 50 ng/mL, and Ionomycin final concentration was 500 ng/mL.
Incubation: at 37° C. with 5% CO2 and 95% humidity for 18 h ˜20 h.
IC50: IC50 was calculated with the data analysis software XLfit4, General Pharmacology model 251.

IC50: 29 nM
Structure (SMILES): Cc1cc(S(C)(=O)=O)ncc1-c1ccc2[nH]c(-c3cncc(F)c3C)cc2c1 [Example 1, 2-(5-fluoro-4-methyl-pyridin-3-yl)-5-(6-methanesulfonyl-4-methyl-pyridin-3-yl)-1H-indole]
